Source: patent US20230159527A1, “COMPOUNDS AS BCL-2 INHIBITORS” (Fochon Pharmaceuticals, Ltd., priority 2020, published 2023)

How the values were obtained:
[1] = test system: RS4;11 cells; assay: Cell proliferation assay, RS4;11 cells (MTS, 72 h); format: cell-based; conditions: Homo sapiens, RS4;11 cell proliferation
Procedure: MTS testing kit was purchased from Promega. The RPMI-1640, Fetal bovine serum and Penicillin-Streptomycin were purchased from Gibco. Dimethyl sulfoxide (DMSO) was purchased from Sigma.
To investigate whether a compound is able to inhibit the activity of Bcl-2 in cells, a mechanism-based assay using RS4;11 (ATCC® CRL-1873™) cell was developed. In this assay, inhibition of Bcl-2 was detected by the inhibition of RS4;11 cells proliferation. RS4;11 cells were cultured in culture flasks to 40-80% confluence in RPMI-1640 plus 10% fetal bovine serum. Cells were collected and plated onto 96-well plates at desired cell density (30000 cells/well). Plates were incubated overnight at 37° C., with 5% CO2 to adhere. Compounds were added to the plates, and the final compound concentrations were 10000, 3333, 1111, […], 41, 14, 4.6 and 1.5 nM. Plates plated with RS4;11 cells were placed at 37° C., with 5% CO2 for 72 h. 20 μl MTS/100 μl medium mixture solution were added to each well and incubate the plates for exactly 2 hours. The reaction was stopped by adding 25 μl 10% SDS per well. Measure absorbance at 490 nm and 650 nm (reference wavelength). IC50 was calculated using GraphPad Prism 5.0.

[2] = test system: DoHH2 cells; assay: Cell proliferation assay, DoHH2 cells (MTS, 120 h); format: cell-based; conditions: Homo sapiens, DOHH-2
Method in brief: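 DoHH2 cells in RPMI-1640 with 10% FBS were plated at 5000/well and rested 4 h. They were then exposed to compound at nine final concentrations (10000 to 1.5 nM) for 120 h at 37 °C. Viability was read by MTS (2 h, A490) and IC50 derived by curve fitting.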

Compound | IC50 [1] | IC50 [2]
CS(C)(=O)=NC1CCC(CNc2ncc(S(=O)(=O)NC(=O)c3ccc(N4CCC5(CC4)CC(N4CCC[C@@H]4c4ccccc4C4CC4)C5)cc3Oc3cnc4[nH]ccc4c3)cc2[N+](=O)[O-])CC1 (single isomer, unassigned) [Example A-9b, (R or S)-2-((1H-pyrrolo[2,3-b]pyridin-5-yl)oxy)-4-(2-(2-(2-cyclopropyl-phenyl)pyrrolidin-1-yl)-7-azaspiro [3.5]nonan-7-yl)-N-((6-(((4-((dimethyl(oxo)-λ^6-sulfanylidene)amino)cyclohexyl)methyl)amino)-5-nitropyridin-3-yl)sulfonyl)benzamide] | ≤ 1 nM | 
CCS(=O)(CC)=NC1CCC(CNc2ncc(S(=O)(=O)NC(=O)c3ccc(N4CCC5(CC4)CC(N4CCC[C@@H]4c4ccccc4C(C)C)C5)cc3Oc3cnc4[nH]ccc4c3)cc2[N+](=O)[O-])CC1 (single isomer, unassigned) [Example A-13b, (R or S)-2-((1H-pyrrolo[2,3-b]pyridin-5-yl)oxy)-N-((6-(((4-((diethyl(oxo)-λ^6-sulfanylidene)amino)cyclohexyl)methyl)amino)-5-nitropyridin-3-yl)sulfonyl)-4-(2-(2-(2-isopropyl-phenyl)pyrrolidin-1-yl)-7-azaspiro [3.5]nonan-7-yl)benzamide] | ≤ 1 nM | ≤ 1 nM
O=C(NS(=O)(=O)c1cnc(NCC2CCOCC2)c([N+](=O)[O-])c1)c1ccc(N2CCC3(CC2)CC(N2CCNC[C@H]2c2ccccc2C2CC2)C3)cc1Oc1cnc2[nH]ccc2c1 (single isomer, unassigned) [Example A-36a, (R or S)-2-((1H-pyrrolo[2,3-b]pyridin-5-yl)oxy)-4-(2-(2-(2-cyclopropyl-phenyl)piperazin-1-yl)-7-azaspiro [3.5]nonan-7-yl)-N-((5-nitro-6-(((tetrahydro-2H-pyran-4-yl)methyl)amino)pyridin-3-yl)sulfonyl) benzamide] | ≤ 1 nM | 
O=C(NS(=O)(=O)c1cnc(NCC2CCOCC2)c([N+](=O)[O-])c1)c1ccc(N2CCC3(CC2)CC(N2CCOC[C@H]2c2ccccc2C2CC2)C3)cc1Oc1cnc2[nH]ccc2c1 (single isomer, unassigned) [Example A-75, (R or S)-2-((1H-pyrrolo[2,3-b]pyridin-5-yl)oxy)-4-(2-(3-(2-cyclopropyl-phenyl)morpholino)-7-azaspiro[3.5]nonan-7-yl)-N-((5-nitro-6-(((tetra-hydro-2H-pyran-4-yl)methyl)amino)pyridin-3-yl)sulfonyl) benzamide] | ≤ 1 nM | ≤ 1 nM
O=C(NS(=O)(=O)c1cnc(NCC2C3COCC23)c([N+](=O)[O-])c1)c1ccc(N2CCC3(CC2)CC(N2CCC4C[C@@]42c2ccccc2C2CC2)C3)cc1Oc1cnc2[nH]ccc2c1 (single isomer, unassigned) [Example A-97a, 2-((1H-pyrrolo[2,3-b]pyridin-5-yl)oxy)-N-((6-(((3-oxabicyclo[3.1.0]hexan-6-yl)methyl)amino)-5-nitro-pyridin-3-yl)sulfonyl)-4-(2-((1R or 1S)-1-(2-cyclopropylphenyl)-2-aza-bicyclo[3.1.0]hexan-2-yl)-7-azaspiro [3.5]nonan-7-yl)benzamide] | ≤ 1 nM | ≤ 1 nM
O=C(NS(=O)(=O)c1cnc(NCC2CCSCC2)c([N+](=O)[O-])c1)c1ccc(N2CCC3(CC2)CC(N2CCOC[C@H]2c2ccccc2C2CC2)C3)cc1Oc1cnc2[nH]ccc2c1 (single isomer, unassigned) [Example A-98, (R or S)-2-((1H-pyrrolo[2,3-b]pyridin-5-yl)oxy)-4-(2-(3-(2-cyclopropyl-phenyl)morpholino)-7-azaspiro[3.5]nonan-7-yl)-N-((5-nitro-6-(((tetra-hydro-2H-thiopyran-4-yl)methyl)amino)pyridin-3-yl)sulfonyl) benzamide] | ≤ 1 nM | 
Cc1nc(NC[C@H]2CC[C@](C)(O)CC2)c([N+](=O)[O-])cc1S(=O)(=O)NC(=O)c1ccc(N2CCC3(CC2)CC(N2CCOC[C@H]2c2ccccc2C(C)C)C3)cc1Oc1cnc2[nH]ccc2c1 (single isomer, unassigned) [Example A-131, 2-((1H-pyrrolo[2,3-b]pyridin-5-yl)oxy)-N-((6-((((1r,4r)-4-hydroxy-4-methylcyclohexyl)methyl)amino)-2-methyl-5-nitropyridin-3-yl)sulfonyl)-4-(2-((R or S)-3-(2-isopropylphenyl)morpholino)-7-azaspiro[3.5]nonan-7-yl) benzamide] | ≤ 1 nM | ≤ 1 nM
CC(C)c1ccccc1C1CCCN1C1CC2(CCN(c3ccc(C(=O)NS(=O)(=O)c4cc([N+](=O)[O-])c5c(n4)OC[C@H](C4CC4)N5)c(Oc4cnc5[nH]ccc5c4)c3)CC2)C1 (single isomer, unassigned) [Example B-31a, 2-((1H-pyrrolo[2,3-b]pyridin-5-yl)oxy)-N-(((S)-2-cyclopropyl-8-nitro-2,3-dihydro-1H-pyrido[2,3-b] [1,4]oxazin-6-yl)sulfonyl)-4-(2-((R or S)-2-(2-isopropylphenyl)pyrrolidin-1-yl)-7-azaspiro[3.5]nonan-7-yl)benzamide] | ≤ 1 nM | ≤ 1 nM
CC(C)c1ccccc1C1CCCN1C1CC2(CCN(c3ccc(C(=O)NS(=O)(=O)c4cc([N+](=O)[O-])c5c(n4)OC[C@H](C4CCOCC4)N5)c(Oc4cnc5[nH]ccc5c4)c3)CC2)C1 (single isomer, unassigned) [Example B-33, 2-((1H-pyrrolo[2,3-b]pyridin-5-yl)oxy)-4-(2-((R or S)-2-(2-isopropylphenyl)pyrrolidin-1-yl)-7-azaspiro[3.5]nonan-7-yl)-N-(((S)-8-nitro-2-(tetrahydro-2H-pyran-4-yl)-2,3-dihydro-1H-pyrido[2,3-b][1,4]oxazin-6-yl)sulfonyl)benzamide] | ≤ 1 nM | ≤ 1 nM
CC(C)c1ccccc1[C@@H]1CCCN1C1CC2(CCN(c3ccc(C(=O)NS(=O)(=O)c4cc([N+](=O)[O-])c5c(n4)OC[C@H]([C@H]4CC[C@](C)(O)CC4)N5)c(Oc4cnc5[nH]ccc5c4)c3)CC2)C1 (single isomer, unassigned) [Example B-34, 2-((1H-pyrrolo[2,3-b]pyridin-5-yl)oxy)-N-(((S)-2-((1r,4S)-4-hydroxy-4-methylcyclohexyl)-8-nitro-2,3-dihydro-1H-pyrido[2,3-b] [1,4]oxazin-6-yl)sulfonyl)-4-(2-((R or S)-2-(2-isopropylphenyl)pyrrolidin-1-yl)-7-azaspiro[3.5]nonan-7-yl)benzamide] | ≤ 1 nM | ≤ 1 nM
CC(C)c1ccccc1[C@@H]1CCCN1C1CC2(CCN(c3ccc(C(=O)NS(=O)(=O)c4cnc(NCC5C6COCC56)c([N+](=O)[O-])c4)c(Oc4cnc5[nH]ccc5c4)c3)CC2)C1 (stereo in doubt) [Example A-27a, 2-((1H-pyrrolo[2,3-b]pyridin-5-yl)oxy)-N-((6-(((3-oxabicyclo[3.1.0]hexan-6-yl)methyl)amino)-5-nitro-pyridin-3-yl)sulfonyl)-4-(2-((5)-2-(2-isopropylphenyl)pyrrolidin-1-yl)-7-azaspiro[3.5]nonan-7-yl) benzamide] | ≤ 1 nM | 
CC1(O)CCC(CNc2ncc(S(=O)(=O)NC(=O)c3ccc(N4CCC5(CC4)CC(N4CCC[C@H]4c4ccccc4C4CC4)C5)cc3Oc3cnc4[nH]ccc4c3)cc2[N+](=O)[O-])CC1 (stereo partly drawn) [Example A-1a, (S)-2-((1H-pyrrolo[2,3-b]pyridin-5-yl)oxy)-4-(2-(2-(2-cyclopropylphenyl)pyrrolidin-1-yl)-7-azaspiro[3.5]nonan-7-yl)-N-((6-(((4-hydroxy-4-methylcyclohexyl)methyl)amino)-5-nitropyridin-3-yl)sulfonyl)benzamide] | ≤ 1 nM | 
CC(C)c1ccccc1[C@@H]1CCCN1C1CC2(CCN(c3ccc(C(=O)NS(=O)(=O)c4cnc(NCC5CCC(C)(O)CC5)c([N+](=O)[O-])c4)c(Oc4cnc5[nH]ccc5c4)c3)CC2)C1 (stereo partly shown) [Example A-6a, (5)-2-((1H-pyrrolo[2,3-b]pyridin-5-yl)oxy)-N-((6-(((4-hydroxy-4-methylcyclohexyl)methyl)amino)-5-nitropyridin-3-yl)sulfonyl)-4-(2-(2-(2-isopropylphenyl)pyrrolidin-1-yl)-7-azaspiro[3.5]nonan-7-yl) benzamide] | ≤ 1 nM | 
CCc1ccccc1[C@@H]1CCCN1C1CC2(CCN(c3ccc(C(=O)NS(=O)(=O)c4cnc(NCC5CCC(C)(O)CC5)c([N+](=O)[O-])c4)c(Oc4cnc5[nH]ccc5c4)c3)CC2)C1 (stereo partly drawn) [Example A-8a, (S)-2-((1H-pyrrolo[2,3-b]pyridin-5-yl)oxy)-4-(2-(2-(2-ethylphenyl)pyrrolidin-1-yl)-7-azaspiro[3.5]nonan-7-yl)-N-((6-(((4-hydroxy-4-methylcyclohexyl)methyl)amino)-5-nitropyridin-3-yl)sulfonyl) benzamide] | ≤ 1 nM | 
O=C(NS(=O)(=O)c1cnc(NCC2C3COCC23)c([N+](=O)[O-])c1)c1ccc(N2CCC3(CC2)CC(N2CCC[C@H]2c2ccccc2C2CC2)C3)cc1Oc1cnc2[nH]ccc2c1 (stereo partly shown) [Example A-30a, 2-((1H-pyrrolo[2,3-b]pyridin-5-yl)oxy)-N-((6-(((3-oxabicyclo[3.1.0]hexan-6-yl)methyl)amino)-5-nitro-pyridin-3-yl)sulfonyl)-4-(2-((5)-2-(2-cyclopropylphenyl)pyrrolidin-1-yl)-7-azaspiro[3.5]nonan-7-yl) benzamide] | ≤ 1 nM | 
